Laboratory results as given in ChEMBL document CHEMBL2074048, “Identification of a region of the ileal-type sodium/bile acid cotransporter interacting with a competitive bile acid transport inhibitor” (Biochemistry, 2002).

Tests used:
[1] = biological target: T1, Ileal sodium/bile acid cotransporter (Homo sapiens, UniProt Q12908); assay: (§1) TP_TRANSPORTER: inhibition of Taurocholate accumulation in ASBT-expressing HEK293 cells; format: functional, cell-based
T1 sequence (Q12908 whole entry): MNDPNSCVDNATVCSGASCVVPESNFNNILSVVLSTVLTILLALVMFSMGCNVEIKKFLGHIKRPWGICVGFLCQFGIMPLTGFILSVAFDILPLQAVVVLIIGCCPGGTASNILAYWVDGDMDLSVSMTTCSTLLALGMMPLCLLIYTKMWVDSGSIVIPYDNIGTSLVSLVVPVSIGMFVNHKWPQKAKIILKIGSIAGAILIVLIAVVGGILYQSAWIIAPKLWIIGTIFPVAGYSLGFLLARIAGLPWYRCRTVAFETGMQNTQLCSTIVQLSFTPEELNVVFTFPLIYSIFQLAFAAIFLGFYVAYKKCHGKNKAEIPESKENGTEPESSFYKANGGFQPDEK

[2] = biological target: T2, Ileal sodium/bile acid cotransporter (Mus musculus, UniProt P70172); assay: as §1; format: functional, cell-based
T2 sequence (P70172 whole entry): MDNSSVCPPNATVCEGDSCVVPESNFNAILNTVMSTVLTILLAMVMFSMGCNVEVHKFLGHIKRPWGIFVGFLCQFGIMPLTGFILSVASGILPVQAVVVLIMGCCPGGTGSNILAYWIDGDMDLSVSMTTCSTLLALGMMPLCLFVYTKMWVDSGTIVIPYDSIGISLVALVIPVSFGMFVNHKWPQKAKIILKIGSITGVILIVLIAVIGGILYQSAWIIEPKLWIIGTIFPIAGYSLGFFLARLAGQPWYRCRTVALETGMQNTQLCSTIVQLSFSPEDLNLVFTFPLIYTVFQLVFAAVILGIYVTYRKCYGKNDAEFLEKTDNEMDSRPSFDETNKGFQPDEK

SMILES: CCCC[C@]1(CC)CS(=O)(=O)c2ccccc2[C@@H](c2ccccc2)N1
- Ki [1]: 10 µM
- Ki [2]: 0.068 µM
